The target of the assay is EGFR (Homo sapiens, UniProt P00533). The assay is described as follows: mobility shift kinase assay (Caliper, FAM-labeled peptide). Type of assay: biochemical.

The structures appear in SMILES notation.

As usually defined, the IC50 is the concentration at which inhibition is half-maximal.

Chain of EGFR (P00533 25-1210): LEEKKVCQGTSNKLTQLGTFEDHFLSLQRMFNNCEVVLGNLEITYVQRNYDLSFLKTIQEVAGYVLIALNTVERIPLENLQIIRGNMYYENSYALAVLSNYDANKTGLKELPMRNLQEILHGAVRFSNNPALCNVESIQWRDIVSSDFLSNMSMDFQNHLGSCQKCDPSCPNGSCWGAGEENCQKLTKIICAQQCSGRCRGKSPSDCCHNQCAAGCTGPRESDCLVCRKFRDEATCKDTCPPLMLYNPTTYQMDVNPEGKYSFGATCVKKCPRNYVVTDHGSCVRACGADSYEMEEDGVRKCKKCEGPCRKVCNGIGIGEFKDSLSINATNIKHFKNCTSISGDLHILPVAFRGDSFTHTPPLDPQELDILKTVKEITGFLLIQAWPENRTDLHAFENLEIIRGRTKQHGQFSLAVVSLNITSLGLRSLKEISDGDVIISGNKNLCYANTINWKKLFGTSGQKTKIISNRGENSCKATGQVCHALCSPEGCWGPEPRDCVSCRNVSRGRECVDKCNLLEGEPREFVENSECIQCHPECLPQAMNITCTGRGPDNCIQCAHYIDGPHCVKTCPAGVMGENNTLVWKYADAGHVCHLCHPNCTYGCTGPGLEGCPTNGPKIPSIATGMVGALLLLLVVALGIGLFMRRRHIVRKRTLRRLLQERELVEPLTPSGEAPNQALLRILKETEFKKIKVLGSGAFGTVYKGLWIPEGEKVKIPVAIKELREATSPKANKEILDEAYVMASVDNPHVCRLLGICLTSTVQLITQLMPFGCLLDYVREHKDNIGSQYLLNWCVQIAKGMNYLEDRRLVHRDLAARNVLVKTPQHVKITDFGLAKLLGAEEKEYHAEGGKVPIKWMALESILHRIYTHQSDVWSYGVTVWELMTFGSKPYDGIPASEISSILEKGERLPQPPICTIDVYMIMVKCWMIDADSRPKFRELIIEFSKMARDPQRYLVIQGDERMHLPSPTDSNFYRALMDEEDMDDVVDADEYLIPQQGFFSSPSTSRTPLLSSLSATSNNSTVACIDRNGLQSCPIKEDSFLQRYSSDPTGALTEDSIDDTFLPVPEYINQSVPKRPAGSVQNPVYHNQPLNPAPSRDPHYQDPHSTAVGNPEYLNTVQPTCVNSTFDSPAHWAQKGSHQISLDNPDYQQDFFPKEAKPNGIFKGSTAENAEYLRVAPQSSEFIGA

Regarding `Cc1cccc(Cl)c1NC(=O)Nc1ccc(-c2nc(NCCN(C)C)c3ccccc3n2)cc1` [5a, 1-(2-Chloro-6-methylphenyl)-3-(4-(4-((2-(dimethylamino)ethyl)amino)quinazolin-2-yl)phenyl)urea], the IC50 came out at 56 nM.

The values are drawn from paper PMC6273962, “Design, Synthesis and Structure-Activity Relationships of Novel Diaryl Urea Derivatives as Potential EGFR Inhibitors” (Molecules, 2016).
